Measurements published in ChEMBL document CHEMBL1131296 (J Med Chem, 1998).

Assays:
D(2) dopamine receptor = D(2) dopamine receptor (Rattus norvegicus, UniProt P61169); assay: Binding affinity at native Dopamine receptor D2 in rat striatum by [3H]spiperone displacement.; format: tissue-based
[1] = molecular target: T1, Adrenergic receptor alpha-2 (Rattus norvegicus, UniProt P22086+P19328+P22909); assay: Antagonism of the clonidine-induced depression of twitch responses of rat isolated prostatic vas deferens.
T1 sequence (P22086 whole entry): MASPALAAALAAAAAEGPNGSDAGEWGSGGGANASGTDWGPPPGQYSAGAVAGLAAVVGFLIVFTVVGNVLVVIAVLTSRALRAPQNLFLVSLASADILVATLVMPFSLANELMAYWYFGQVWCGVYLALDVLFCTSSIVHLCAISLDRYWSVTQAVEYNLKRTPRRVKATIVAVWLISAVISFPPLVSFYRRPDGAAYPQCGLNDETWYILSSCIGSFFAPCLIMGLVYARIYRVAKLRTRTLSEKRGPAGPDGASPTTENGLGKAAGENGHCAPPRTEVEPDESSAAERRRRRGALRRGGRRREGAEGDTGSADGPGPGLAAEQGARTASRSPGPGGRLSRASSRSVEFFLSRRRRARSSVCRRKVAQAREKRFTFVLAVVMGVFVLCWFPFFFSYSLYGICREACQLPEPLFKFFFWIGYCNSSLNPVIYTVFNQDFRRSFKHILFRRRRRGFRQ
T1 sequence (P19328 whole entry): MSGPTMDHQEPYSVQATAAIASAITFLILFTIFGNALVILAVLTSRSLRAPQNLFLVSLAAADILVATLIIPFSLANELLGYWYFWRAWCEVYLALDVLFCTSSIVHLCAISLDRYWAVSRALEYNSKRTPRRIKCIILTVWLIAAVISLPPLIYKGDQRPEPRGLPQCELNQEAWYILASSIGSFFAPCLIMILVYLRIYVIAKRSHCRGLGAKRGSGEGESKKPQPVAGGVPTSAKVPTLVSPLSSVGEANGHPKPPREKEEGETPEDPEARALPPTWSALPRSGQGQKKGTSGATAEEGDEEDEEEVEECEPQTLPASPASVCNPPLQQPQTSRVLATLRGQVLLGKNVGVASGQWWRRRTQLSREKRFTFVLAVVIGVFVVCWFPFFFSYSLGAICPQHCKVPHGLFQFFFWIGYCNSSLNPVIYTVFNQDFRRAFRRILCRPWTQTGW
T1 sequence (P22909 whole entry): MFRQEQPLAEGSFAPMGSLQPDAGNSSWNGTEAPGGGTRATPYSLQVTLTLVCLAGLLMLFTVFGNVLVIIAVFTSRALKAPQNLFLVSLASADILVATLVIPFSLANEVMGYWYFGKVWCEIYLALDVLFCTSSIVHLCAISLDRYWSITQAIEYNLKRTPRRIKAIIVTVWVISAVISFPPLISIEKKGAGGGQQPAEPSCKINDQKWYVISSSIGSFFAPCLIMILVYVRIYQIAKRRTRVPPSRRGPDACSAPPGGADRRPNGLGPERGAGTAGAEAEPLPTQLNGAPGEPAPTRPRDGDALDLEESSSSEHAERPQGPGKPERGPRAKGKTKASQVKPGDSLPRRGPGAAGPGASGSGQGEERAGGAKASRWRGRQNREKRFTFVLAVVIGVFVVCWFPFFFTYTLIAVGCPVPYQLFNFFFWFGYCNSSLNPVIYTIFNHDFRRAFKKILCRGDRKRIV

[2] = molecular target: T1, Adrenergic receptor alpha-2; assay: Binding affinity at native Alpha-2 adrenergic receptor in rat cerebral cortex by [3H]rauwolscine displacement.; format: tissue-based
[3] = molecular target: T2, Alpha-1A adrenergic receptor (Homo sapiens, UniProt P35348); assay: Binding affinity at human cloned Alpha-1A adrenergic receptor in chinese hamster ovary cells by [3H]-prazosin displacement.; format: cell-based, CHO
T2 sequence (P35348 whole entry): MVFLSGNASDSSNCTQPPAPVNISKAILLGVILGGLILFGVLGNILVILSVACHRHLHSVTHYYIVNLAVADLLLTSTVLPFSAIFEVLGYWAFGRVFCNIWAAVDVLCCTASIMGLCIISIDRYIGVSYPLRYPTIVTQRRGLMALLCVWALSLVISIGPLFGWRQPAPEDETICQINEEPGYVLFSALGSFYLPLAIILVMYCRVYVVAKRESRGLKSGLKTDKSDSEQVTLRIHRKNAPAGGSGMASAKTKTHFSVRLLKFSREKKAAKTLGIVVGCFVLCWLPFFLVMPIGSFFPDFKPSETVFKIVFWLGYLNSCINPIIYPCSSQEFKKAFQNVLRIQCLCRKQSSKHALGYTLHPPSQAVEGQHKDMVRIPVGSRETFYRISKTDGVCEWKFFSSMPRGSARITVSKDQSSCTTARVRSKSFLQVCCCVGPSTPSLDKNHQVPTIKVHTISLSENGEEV

[4] = molecular target: T3, Alpha-1B adrenergic receptor (Rattus norvegicus, UniProt P15823); assay: Antagonism of phenylephrine stimulated contraction of the rat isolated spleen.; format: functional, tissue-based; conditions: read-out: pA2 (converted)
T3 sequence (P15823 whole entry): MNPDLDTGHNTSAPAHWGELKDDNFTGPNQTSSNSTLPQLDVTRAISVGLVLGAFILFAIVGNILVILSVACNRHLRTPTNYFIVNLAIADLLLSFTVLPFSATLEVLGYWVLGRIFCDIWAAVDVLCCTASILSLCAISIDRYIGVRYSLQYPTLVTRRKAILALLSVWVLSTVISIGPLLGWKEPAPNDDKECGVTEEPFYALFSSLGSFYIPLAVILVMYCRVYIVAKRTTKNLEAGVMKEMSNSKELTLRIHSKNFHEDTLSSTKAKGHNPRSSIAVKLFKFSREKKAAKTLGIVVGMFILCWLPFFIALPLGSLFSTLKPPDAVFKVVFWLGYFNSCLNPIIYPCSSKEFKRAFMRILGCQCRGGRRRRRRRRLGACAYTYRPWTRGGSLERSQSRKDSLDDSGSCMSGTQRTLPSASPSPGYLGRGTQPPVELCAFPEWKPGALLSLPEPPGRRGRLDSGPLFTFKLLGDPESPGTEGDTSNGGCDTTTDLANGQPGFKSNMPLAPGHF

Chain of D(2) dopamine receptor (P61169 whole entry): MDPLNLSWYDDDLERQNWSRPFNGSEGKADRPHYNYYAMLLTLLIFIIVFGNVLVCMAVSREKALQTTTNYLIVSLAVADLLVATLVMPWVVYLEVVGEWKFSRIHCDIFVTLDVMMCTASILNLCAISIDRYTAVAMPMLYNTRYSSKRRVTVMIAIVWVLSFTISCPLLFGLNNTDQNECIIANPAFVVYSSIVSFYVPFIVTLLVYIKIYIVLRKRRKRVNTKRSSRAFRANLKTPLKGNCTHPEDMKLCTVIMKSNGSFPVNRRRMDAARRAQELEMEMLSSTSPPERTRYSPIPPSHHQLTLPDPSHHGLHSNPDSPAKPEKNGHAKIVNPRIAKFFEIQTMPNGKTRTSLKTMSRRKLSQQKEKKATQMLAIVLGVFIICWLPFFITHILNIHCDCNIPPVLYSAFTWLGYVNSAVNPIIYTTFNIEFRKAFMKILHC

Ki (D(2) dopamine receptor): 1950 nM
pA2 [1]: < 5
Log Ki [2]: -7.72
Ki [3]: 0.324 nM
Kb [4]: 37.2 nM
Structure (SMILES): COc1cc2nc(N(C)CCCCCCN(C)C(=O)c3cccc(CN(C)C)c3)nc(N)c2cc1OC
